For assay [1], the system named is CD4^+ T cell hybridomas with C3g7 APCs. As to the kind of experiment: Antigen presentation assay. Format: cell-based, mouse. The following applies: for response of InsB:11–25-reactive CD4^+ T cell hybridoma clone 58: Extended Data Fig. 3.
In a further assay the test system is I-A^g7. As to the kind of experiment: Competitive binding assay. The arrangement: species or system mouse. The following applies: n = 2 independent experiments.
Assay [2] deals with CD4^+ T cells from islets and pLN. Type of assay: cell-based. The conditions noted are these: 8–10-week old female NOD mice; challenge with Ins1C:51–61 or Ins1C:51–61E and recall; compared with native Ins1C:51–61 or Ins1C:33–61; Fig. 3g.
The mark [3] stands for this setting: C3g7 APCs pulsed with epitope, Fig. 2c.

“Also recorded” adds a separate entry of the source.

Take EALYLVCGE [InsB:13–21]: the “response of InsB:11–25-reactive CD4^+ T cell hybridoma clone 58” value in assay [1] (setting [3]) is “did not recognize; also recorded: unreactive”.
For the compound TLALEVARE [Ins1C:53–61E], in the assay with I-A^g7 (competitive binding assay on C3g7 cells), the “relative binding strength to I-A^g7 (in words)” value was “bound poorly”.
Regarding LYLVCGERG [InsB:15–23], in assay [1] (setting [3]), the “response of InsB:11–25-reactive CD4^+ T cell hybridoma clone 58” value is listed as “responded”.
For VEALYLVCG [InsB:12–20], in assay [1] (setting [3]), the “response of InsB:11–25-reactive CD4^+ T cell hybridoma clone 21” value is “cross-reacted” and the “response of InsB:11–25-reactive CD4^+ T cell hybridoma clone 58” value is on record as “did not recognize; also recorded: unreactive”.
Regarding LQTLALEVARE [Ins1C:51–61E], the “IL-2 and IFN-γ production by islet/pLN CD4^+ T cells” value in assay [2] is “substantially stronger responses”. Also, the “fold higher binding affinity to I-A^g7 than Ins1C:51–61” value with I-A^g7 (competitive binding assay, Fig. 3e) is given as ~ 3 fold.
`CCN(CC)CCCC(C)Nc1ccnc2cc(Cl)ccc12` (centres unmarked) [chloroquine, reference compound]: the “effect on presentation of Ins1C:33–61 to a cognate CD4^+ T cell hybridoma” value in assay [1] (C3g7 APCs treated with 100 μM chloroquine at 37°C for 2 h in the presence of antigen, Extended Data Fig. 1d) is “did not affect the presentation”.

(Values after publication PMC7117798 (Nature immunology, 2020).)
